Source: patent publication US9512107B2, “Therapeutically active compositions and their methods of use” (Agios Pharmaceuticals, Inc., priority 2012, dated 2016)
Residue numbers refer to the chain shown, from its start.

How the values were obtained:
[1] = test system: U87MG pLVX-IDH2 R140Q-neo cells; assay: U87MG pLVX-IDH2 R140Q-neo cell based assay, 2-HG in media by LC-MS at 48 hours; conditions: Homo sapiens, U-87 MG
How it was run: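 U87MG cells stably expressing IDH2 R140Q were seeded overnight, then exposed to compound at 0.2% final DMSO at 37 °C, 5% CO2. 2-HG in the medium was quantified by LC-MS at 48 h. Growth inhibition was read by CellTiter-Glo luminescence at 72 h.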

IDH2 R172K = target: T1, IDH2 R172K (Homo sapiens, UniProt P48735, R172K); assay: IDH2 R172K enzymatic assay (NADPH cofactor depletion, diaphorase/resazurin readout); type: biochemical; conditions: read-out: Enz R172K
T1 sequence (P48735 40-452 R172K): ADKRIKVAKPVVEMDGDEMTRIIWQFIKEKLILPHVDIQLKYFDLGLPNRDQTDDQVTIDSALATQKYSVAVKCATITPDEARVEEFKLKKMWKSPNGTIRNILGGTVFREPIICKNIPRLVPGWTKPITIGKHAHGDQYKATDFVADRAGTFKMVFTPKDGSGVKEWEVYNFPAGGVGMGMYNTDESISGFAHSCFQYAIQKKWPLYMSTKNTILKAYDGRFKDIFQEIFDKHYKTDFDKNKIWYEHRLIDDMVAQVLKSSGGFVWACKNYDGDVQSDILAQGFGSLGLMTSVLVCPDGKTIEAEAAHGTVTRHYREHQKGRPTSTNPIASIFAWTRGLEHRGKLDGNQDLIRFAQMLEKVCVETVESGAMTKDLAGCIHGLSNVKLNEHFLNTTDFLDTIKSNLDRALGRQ
How it was run: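 Test compounds are incubated with the mutant enzyme for one hour at ambient temperature. A substrate mix of 50 μM NADPH plus 6.3 mM α-KG initiates turnover, which proceeds for one hour. Diaphorase and resazurin then halt the reaction by depleting the cofactor and convert the remaining NADPH into a fluorescent signal.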

IDH2 R140Q = target: T2, IDH2 R140Q (Homo sapiens, UniProt P48735, R140Q); assay: IDH2 R140Q enzymatic assay (cofactor depletion, similar format); type: biochemical; conditions: read-out: Enz R140Q
T2 sequence (P48735 40-452 R140Q): T1 sequence (P48735 40-452 R172K) with R101Q, K133R

| SMILES | IC50 [1] | IC50 (IDH2 R172K) | IC50 (IDH2 R140Q) |
| --- | --- | --- | --- |
| CC(C)Nc1nc(Nc2cc(F)cc(F)c2)nc(-c2cccc(C(F)(F)F)n2)n1 [Compound 603, N2-(3,5-difluorophenyl)-N4-isopropyl-6-(6-(trifluoromethyl)pyridin-2-yl)-1,3,5-triazine-2,4-diamine] | < 100 nM | < 100 nM | 100 to 1000 nM |
| CC(C)(C)Nc1nc(Nc2ccnc(C3(C#N)CC3)c2)nc(-c2cccc(C(C)(F)F)n2)n1 [Compound 606, 1-(4-((4-(tert-butylamino)-6-(6-(1,1-difluoroethyl)pyridin-2-yl)-1,3,5-triazin-2-yl)amino)pyridin-2-yl)cyclopropanecarbonitrile] | < 100 nM | < 100 nM | 100 to 1000 nM |
| CS(=O)(=O)c1cccc(Nc2nc(NCC3CC3)nc(-c3cccc(C(F)(F)F)n3)n2)c1 [Compound 607, N2-(cyclopropylmethyl)-N4-(3-(methylsulfonyl)phenyl)-6-(6-(trifluoromethyl)pyridin-2-yl)-1,3,5-triazine-2,4-diamine] | < 100 nM | 100 to 1000 nM | 100 to 1000 nM |
| CC(C)(C)Nc1nc(Nc2ccnc(C3(C#N)CC3)c2)nc(-c2cccc(C(F)(F)F)n2)n1 [Compound 608, 1-(4-((4-(tert-butylamino)-6-(6-(trifluoromethyl)pyridin-2-yl)-1,3,5-triazin-2-yl)amino)pyridin-2-yl)cyclopropanecarbonitrile] | < 100 nM | < 100 nM | 100 to 1000 nM |
| CC(F)(F)c1cccc(-c2nc(NCC3CC3)nc(Nc3cc(Cl)cc(S(C)(=O)=O)c3)n2)n1 [Compound 609, N2-(3-chloro-5-(methylsulfonyl)phenyl)-N4-(cyclopropylmethyl)-6-(6-(1,1-difluoroethyl)pyridin-2-yl)-1,3,5-triazine-2,4-diamine] | < 100 nM | < 100 nM | 100 to 1000 nM |
| CC(F)(F)c1cccc(-c2nc(NCC3CC3)nc(Nc3cc(F)cc(S(C)(=O)=O)c3)n2)n1 [Compound 612, N2-(cyclopropylmethyl)-6-(6-(1,1-difluoroethyl)pyridin-2-yl)-N4-(3-fluoro-5-(methylsulfonyl)phenyl)-1,3,5-triazine-2,4-diamine] | < 100 nM | < 100 nM | 100 to 1000 nM |
| CC(C)Nc1nc(Nc2cc(F)cc(S(C)(=O)=O)c2)nc(-c2cccc(C(C)(F)F)n2)n1 [Compound 613, 6-(6-(1,1-difluoroethyl)pyridin-2-yl)-N2-(3-fluoro-5-(methylsulfonyl)phenyl)-N4-isopropyl-1,3,5-triazine-2,4-diamine] | < 100 nM | < 100 nM | 100 to 1000 nM |
| CC(C)Nc1nc(Nc2cc(Cl)cc(S(C)(=O)=O)c2)nc(-c2cccc(C(C)(F)F)n2)n1 [Compound 614, N2-(3-chloro-5-(methylsulfonyl)phenyl)-6-(6-(1,1-difluoroethyl)pyridin-2-yl)-N4-isopropyl-1,3,5-triazine-2,4-diamine] | < 100 nM | < 100 nM | 100 to 1000 nM |
| CC(C)(C)Nc1nc(Nc2cc(Cl)cc(S(C)(=O)=O)c2)nc(-c2cccc(C(C)(F)F)n2)n1 [Compound 615, N2-(tert-butyl)-N4-(3-chloro-5-(methylsulfonyl)phenyl)-6-(6-(1,1-difluoroethyl)pyridin-2-yl)-1,3,5-triazine-2,4-diamine] | < 100 nM | 100 to 1000 nM | 100 to 1000 nM |
| CC(C)(C)Nc1nc(Nc2cc(F)cc(S(C)(=O)=O)c2)nc(-c2cccc(C(C)(F)F)n2)n1 [Compound 616, N2-(tert-butyl)-6-(6-(1,1-difluoroethyl)pyridin-2-yl)-N4-(3-fluoro-5-(methylsulfonyl)phenyl)-1,3,5-triazine-2,4-diamine] | < 100 nM | < 100 nM | 100 to 1000 nM |
| N#CC1(c2cc(Nc3nc(NCC4CC4)nc(-c4cccc(C(F)(F)F)n4)n3)ccn2)CC1 [Compound 617, 1-(4-((4-((cyclopropylmethyl)amino)-6-(6-(trifluoromethyl)pyridin-2-yl)-1,3,5-triazin-2-yl)amino)pyridin-2-yl)cyclopropanecarbonitrile] | < 100 nM | < 100 nM | 100 to 1000 nM |
| CC(C)(O)CNc1nc(Nc2cncc(F)c2)nc(-c2ccccc2F)n1 [Compound 621, 1-(4-(2-fluorophenyl)-6-(5-fluoropyridin-3-ylamino)-1,3,5-triazin-2-ylamino)-2-methylpropan-2-ol] | 100 to 1000 nM | 1000 to 10000 nM | 100 to 1000 nM |
| CC(C)(O)CNc1nc(Nc2ccc(F)nc2)nc(-c2ccccc2F)n1 [Compound 622, 1-(4-(2-fluorophenyl)-6-(6-fluoropyridin-3-ylamino)-1,3,5-triazin-2-ylamino)-2-methylpropan-2-ol] | 100 to 1000 nM | 100 to 1000 nM | 100 to 1000 nM |
| CC(C)(O)CNc1nc(Nc2ccnc(F)c2)nc(-c2ccccc2F)n1 [Compound 623, 1-(4-(2-fluorophenyl)-6-(2-fluoropyridin-4-ylamino)-1,3,5-triazin-2-ylamino)-2-methylpropan-2-ol] | 100 to 1000 nM | 1000 to 10000 nM | 100 to 1000 nM |

Further lines, results first:

| IC50 [1] | IC50 (IDH2 R172K) | IC50 (IDH2 R140Q) | SMILES |
| --- | --- | --- | --- |
| < 100 nM | < 100 nM | 100 to 1000 nM | CC(F)(F)c1cc(Nc2nc(NCC3CC3)nc(-c3cccc(C(F)(F)F)n3)n2)ccn1 [Compound 604, N2-(cyclopropylmethyl)-N4-(2-(1,1-difluoroethyl)pyridin-4-yl)-6-(6-(trifluoromethyl)pyridin-2-yl)-1,3,5-triazine-2,4-diamine] |
| < 100 nM | 100 to 1000 nM | 100 to 1000 nM | CC(C)(O)CNc1nc(Nc2ccnc(C(C)(F)F)c2)nc(-c2cccc(C(C)(F)F)n2)n1 [Compound 605, 1-((4-(6-(1,1-difluoroethyl)pyridin-2-yl)-6-((2-(1,1-difluoroethyl)pyridin-4-yl)amino)-1,3,5-triazin-2-yl)amino)-2-methylpropan-2-ol] |
| < 100 nM | < 100 nM | 100 to 1000 nM | CC(F)(F)c1cc(Nc2nc(NCC3CC3)nc(-c3cccc(C(C)(F)F)n3)n2)ccn1 [Compound 610, N2-(cyclopropylmethyl)-6-(6-(1,1-difluoroethyl)pyridin-2-yl)-N4-(2-(1,1-difluoroethyl)pyridin-4-yl)-1,3,5-triazine-2,4-diamine] |
| < 100 nM | 100 to 1000 nM | 100 to 1000 nM | CC(F)(F)c1cccc(-c2nc(NCC3CC3)nc(Nc3cccc(S(C)(=O)=O)c3)n2)n1 [Compound 611, N2-(cyclopropylmethyl)-6-(6-(1,1-difluoroethyl)pyridin-2-yl)-N4-(3-(methylsulfonyl)phenyl)-1,3,5-triazine-2,4-diamine] |
| < 100 nM | < 100 nM | 100 to 1000 nM | CC(F)(F)c1cccc(-c2nc(NCC3CC3)nc(Nc3ccnc(C(C)(C)C#N)c3)n2)n1 [Compound 618, (4-((4-((cyclopropylmethyl)amino)-6-(6-(1,1-difluoroethyl)pyridin-2-yl)-1,3,5-triazin-2-yl)amino)pyridin-2-yl)-2-methylpropanenitrile] |
| < 100 nM | < 100 nM | 100 to 1000 nM | CC(F)(F)c1cccc(-c2nc(NCC3CC3)nc(Nc3ccnc(C4(C#N)CC4)c3)n2)n1 [Compound 619, 1-(4-((4-((cyclopropylmethyl)amino)-6-(6-(1,1-difluoroethyl)pyridin-2-yl)-1,3,5-triazin-2-yl)amino)pyridin-2-yl)cyclopropanecarbonitrile] |
